Data from PubChem BioAssay (NCI).
Values joined by “and” are separate entries in the source; they are usually repeats but may differ in a detail not shown here. Equal values may be shown once.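 Briefly, cells in 96-well plates were exposed to five compound concentrations for 48 h, and endpoints were estimated by linear interpolation. GI50 is the concentration that inhibits growth by half. TGI: total growth inhibition.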

Columns and labels:
Test in all cases: NCI-60 cell line screen, 48 h
A498 renal = tested on: A498 renal
DU-145 prostate = tested on: DU-145 prostate
EKVX NSCLC = tested on: EKVX NSCLC
HCT-15 colon = tested on: HCT-15 colon
HL-60(TB) leukemia = tested on: HL-60(TB) leukemia
SF-268 CNS = tested on: SF-268 CNS
SF-539 CNS = tested on: SF-539 CNS
SK-MEL-2 melanoma = tested on: SK-MEL-2 melanoma
TK-10 renal = tested on: TK-10 renal
UACC-257 melanoma = tested on: UACC-257 melanoma

Structure (SMILES)	TGI (A498 renal)	TGI (DU-145 prostate)	TGI (EKVX NSCLC)	TGI (HCT-15 colon)	TGI (HL-60(TB) leukemia)	TGI (SF-268 CNS)	TGI (SF-539 CNS)	TGI (SK-MEL-2 melanoma)	TGI (TK-10 renal)	TGI (UACC-257 melanoma)	GI50 (A498 renal)	GI50 (DU-145 prostate)	GI50 (EKVX NSCLC)	GI50 (HCT-15 colon)	GI50 (HL-60(TB) leukemia)	GI50 (SF-268 CNS)	GI50 (SF-539 CNS)	GI50 (SK-MEL-2 melanoma)	GI50 (TK-10 renal)	GI50 (UACC-257 melanoma)
O=S(=O)(CC(O)C(Cl)(Cl)Cl)NNc1ccccc1 (stereo not given)	> 100000 nM	> 100000 nM	> 100000 nM	> 100000 nM	> 100000 nM	> 100000 nM	> 100000 nM	> 100000 nM	> 100000 nM	> 100000 nM										
O=C1/C(=C\c2ccc([N+](=O)[O-])cc2)CS(=O)(=O)C/C1=C/c1ccc([N+](=O)[O-])cc1	966 nM and 3370 nM	12400 nM	4950 nM	258 nM and 638 nM	145 nM	10500 nM	579 nM and 363 nM	3170 nM	2970 nM	5330 nM	332 nM	870 nM	348 nM	58 nM	13.8 nM	359 nM	136 nM	366 nM	992 nM	931 nM
CCCCCCCCCCCCNC(=O)[C@H]1CSC(c2cc(Br)cs2)N1 (stereo not given in full)	14100 nM	2500 nM	1770 nM	2380 nM	2490 nM	1420 nM	1870 nM	1770 nM	1820 nM	3000 nM	7380 nM	1110 nM	918 nM	1030 nM	1010 nM	598 nM	950 nM	916 nM	951 nM	1240 nM
[CH3][Sn]([CH3])([CH3])[O]C(=O)C(O)c1ccccc1 (stereo not given)	63900 nM	> 100000 nM	55700 nM	19100 nM	> 40500 nM	> 82700 nM	29200 nM	4510 nM	> 100000 nM	> 41700 nM	13800 nM	6180 nM	5360 nM	3570 nM	4750 nM	6200 nM	5900 nM	2060 nM	> 59300 nM	4250 nM
O=Cc1c[nH]c2ccc(-c3csc4ccccc34)cc12	9440 nM	22200 nM	> 100000 nM	> 100000 nM	8380 nM	54300 nM	7520 nM	> 100000 nM	16700 nM	> 100000 nM	2860 nM	3180 nM	2750 nM	2980 nM	2480 nM	4420 nM	2410 nM	2650 nM	3130 nM	13200 nM
O=C(CCCCCNC1=CC(=O)c2ccccc2C1=O)NCCC[Te]c1ccccc1	1660 nM	1900 nM	928 nM	1400 nM	4400 nM	1410 nM	2150 nM	6300 nM	6040 nM	6330 nM	302 nM	430 nM	259 nM	293 nM	315 nM	359 nM	618 nM	2790 nM	2050 nM	2400 nM
CC(=O)Nc1c(I)c(C(=O)O)c(I)c(N(C)C(C)=O)c1I	> 100000 nM	> 100000 nM	> 100000 nM	> 100000 nM	> 100000 nM	> 100000 nM	> 100000 nM	> 100000 nM	> 100000 nM	> 100000 nM	> 100000 nM	> 100000 nM	> 100000 nM	> 100000 nM	> 100000 nM	> 100000 nM	> 100000 nM	> 100000 nM	> 100000 nM	> 100000 nM
